In brackets after ≈: the same amount, converted by molar mass. Where two headings read alike, the source gives them in different places.
Tests used:
Assay type in all cases: cell-based
Acinetobacter baumannii [1] = assay: MIC with/without sub-MIC colistin, Acinetobacter baumannii
Procedure, shortened: (§1)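 Read-out is the MIC, determined with sub-inhibitory colistin or polymixin B nonapeptide co-applied to permeabilize the outer membrane of Gram-negative bacteria.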

Mycobacterium smegmatis = assay: Broth microdilution MIC/MBC, Mycobacterium smegmatis; settings: Mycolicibacterium smegmatis, ATCC14468, M. Smegmatis ATCC 14468
Acinetobacter baumannii [2] = assay: Broth microdilution MIC, Acinetobacter baumannii
[3] = test system: vancomycin resistant enterococci (VRE) E. faecium; assay: Broth microdilution MIC/MBC, VRE E. faecium; settings: for MIC: read-out: MIC
[4] = test system: methicillin-resistant Staphylococcus aureus (MRSA); assay: Broth microdilution MIC/MBC, MRSA
[5] = test system: Vancomycin Resistant Staphylococcus aureus (VRSA); assay: Broth microdilution MIC/MBC, VRSA; settings: for MBC / MIC: VRSA
[6] = test system: vancomycin resistant enterococci (VRE) E. faecalis; assay: Broth microdilution MIC/MBC, VRE E. faecalis; settings: for MIC: read-out: MIC
B. cereus = assay: Broth microdilution MIC/MBC, B. cereus; settings: Bacillus cereus; for MBC: read-out: MBC; for MIC: read-out: MIC
Description: The broth microdilution technique was used, followed by subculturing on agar plates that were rhodanine—free.

Escherichia coli Δ acrAB = assay: MIC against E. coli 1411 and AcrAB efflux pump deficient E. coli SM1411Δ acrAB
Procedure, shortened: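 Gram-negative MICs were determined for rhodanines alongside control antibiotics, each combined with sub-inhibitory colistin or PMBN. Further testing used the efflux-deficient E. coli SM1411ΔacrAB, missing the AcrAB multidrug pump.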

Klebsiella pneumoniae = assay: MIC with/without sub-MIC colistin, Klebsiella pneumoniae
Procedure, shortened: as §1

[7] = E. faecium HM 968 Strain ERV102
[8] = E. faecium NR31914 Strain E0120
[9] = E. faecium Patient #1–1 NR-31903
[10] = E. faecalis NR31972 Strain SF 28073
[11] = NRS201, B. cereus NRS 201 NR-2488

O=C(O)[C@H](Cc1ccccc1)N1C(=O)/C(=C/c2cccc(OC/C=C/c3ccc(Cl)c(Cl)c3)c2)SC1=S [Rh 6]
MIC (Acinetobacter baumannii [1]; Acinetobacter baumannii ATCC BAA747, colistin (+) […], read-out: MIC): >64 µM
MIC (Acinetobacter baumannii [1]; Acinetobacter baumannii ATCC BAA19606, colistin (+) […], read-out: MIC): >64 µM
MIC (Acinetobacter baumannii [1]; Acinetobacter baumannii, ATCCBAA747): > 128 µM
MIC (Acinetobacter baumannii [1]; Acinetobacter baumannii, ATCCBAA19606): > 128 µM
MBC (Mycobacterium smegmatis; read-out: MBC): 32 µM (≈ 18.3 µg/mL)
MIC (Mycobacterium smegmatis; read-out: MIC): 16 µM (≈ 9.13 µg/mL)
MIC (Acinetobacter baumannii [2]; ATCC13345): > 128 µM
MIC (Acinetobacter baumannii [2]; ATCC17786): > 128 µM
MBC ([3]; E. faecium E417 HM-965): > 64 µM
MIC ([3]; E. faecium E417 HM-965): 4 µM (≈ 2.28 µg/mL)
MBC ([3]; E. faecium E1071 NR-28978): > 64 µM
MIC ([3]; E. faecium E1071 NR-28978): 8 µM (≈ 4.56 µg/mL)
MBC [3, 7]: > 64 µM
MIC [3, 7]: 8 µM (≈ 4.56 µg/mL)
MBC [3, 8]: 64 µM (≈ 36.5 µg/mL)
MIC [3, 8]: 8 µM (≈ 4.56 µg/mL)
MBC [3, 9]: > 64 µM
MIC [3, 9]: 4 µM (≈ 2.28 µg/mL)
MIC50 ([4]; 11 MRSA strains): 4 µM (≈ 2.28 µg/mL)
MIC90 ([4]; 11 MRSA strains): 8 µM (≈ 4.56 µg/mL)
MBC ([4]; MRSA NRS 1): 8 µM (≈ 4.56 µg/mL)
MIC ([4]; MRSA NRS 1): 8 µM (≈ 4.56 µg/mL)
MBC ([4]; MRSA NRS 19): 8 µM (≈ 4.56 µg/mL)
MIC ([4]; MRSA NRS 19): 8 µM (≈ 4.56 µg/mL)
MBC ([4]; MRSA NRS 37): 16 µM (≈ 9.13 µg/mL)
MIC ([4]; MRSA NRS 37): 8 µM (≈ 4.56 µg/mL)
MBC ([4]; MRSA NRS 107): 8 µM (≈ 4.56 µg/mL)
MIC ([4]; MRSA NRS 107): 8 µM (≈ 4.56 µg/mL)
MBC ([4]; MRSA NRS 119): 4 µM (≈ 2.28 µg/mL)
MIC ([4]; MRSA NRS 119): 4 µM (≈ 2.28 µg/mL)
MBC ([4]; MRSA NRS 382): 16 µM (≈ 9.13 µg/mL)
MIC ([4]; MRSA NRS 382): 4 µM (≈ 2.28 µg/mL)
MBC ([4]; MRSA NRS 383): 8 µM (≈ 4.56 µg/mL)
MIC ([4]; MRSA NRS 383): 4 µM (≈ 2.28 µg/mL)
MBC ([4]; MRSA NRS 384): 4 µM (≈ 2.28 µg/mL)
MIC ([4]; MRSA NRS 384): 4 µM (≈ 2.28 µg/mL)
MBC ([4]; MRSA NRS 385): 4 µM (≈ 2.28 µg/mL)
MIC ([4]; MRSA NRS 385): 4 µM (≈ 2.28 µg/mL)
MBC ([4]; MRSA NRS 386): 32 µM (≈ 18.3 µg/mL)
MIC ([4]; MRSA NRS 386): 4 µM (≈ 2.28 µg/mL)
MBC ([4]; MRSA NRS 387): 8 µM (≈ 4.56 µg/mL)
MIC ([4]; MRSA NRS 387): 4 µM (≈ 2.28 µg/mL)
MIC50 ([5]; 15 VRSA strains, read-out: MIC 50): 4 µM (≈ 2.28 µg/mL)
MIC90 ([5]; 15 VRSA strains, read-out: MIC 90): 8 µM (≈ 4.56 µg/mL)
MBC ([5]; VRSA 1, read-out: MBC): > 64 µM
MIC ([5]; VRSA 1, read-out: MIC): 8 µM (≈ 4.56 µg/mL)
MBC ([5]; VRSA 2, read-out: MBC): 8 µM (≈ 4.56 µg/mL)
MIC ([5]; VRSA 2, read-out: MIC): 8 µM (≈ 4.56 µg/mL)
MBC ([5]; VRSA 3a, read-out: MBC): 8 µM (≈ 4.56 µg/mL)
MIC ([5]; VRSA 3a, read-out: MIC): 8 µM (≈ 4.56 µg/mL)
MBC ([5]; VRSA 3b, read-out: MBC): 16 µM (≈ 9.13 µg/mL)
MIC ([5]; VRSA 3b, read-out: MIC): 8 µM (≈ 4.56 µg/mL)
MBC ([5]; VRSA 4, read-out: MBC): 8 µM (≈ 4.56 µg/mL)
MIC ([5]; VRSA 4, read-out: MIC): 4 µM (≈ 2.28 µg/mL)
MBC ([5]; VRSA 5, read-out: MBC): 16 µM (≈ 9.13 µg/mL)
MIC ([5]; VRSA 5, read-out: MIC): 4 µM (≈ 2.28 µg/mL)
MBC ([5]; VRSA 6, read-out: MBC): 32 µM (≈ 18.3 µg/mL)
MIC ([5]; VRSA 6, read-out: MIC): 4 µM (≈ 2.28 µg/mL)
MBC ([5]; VRSA 7, read-out: MBC): 8 µM (≈ 4.56 µg/mL)
MIC ([5]; VRSA 7, read-out: MIC): 8 µM (≈ 4.56 µg/mL)
MBC ([5]; VRSA 8, read-out: MBC): 16 µM (≈ 9.13 µg/mL)
MIC ([5]; VRSA 8, read-out: MIC): 4 µM (≈ 2.28 µg/mL)
MBC ([5]; VRSA 9, read-out: MBC): 16 µM (≈ 9.13 µg/mL)
MIC ([5]; VRSA 9, read-out: MIC): 8 µM (≈ 4.56 µg/mL)
MBC ([5]; VRSA 10, read-out: MBC): 16 µM (≈ 9.13 µg/mL)
MIC ([5]; VRSA 10, read-out: MIC): 4 µM (≈ 2.28 µg/mL)
MBC ([5]; VRSA 11a, read-out: MBC): 64 µM (≈ 36.5 µg/mL)
MIC ([5]; VRSA 11a, read-out: MIC): 4 µM (≈ 2.28 µg/mL)
MBC ([5]; VRSA 11b, read-out: MBC): 32 µM (≈ 18.3 µg/mL)
MIC ([5]; VRSA 11b, read-out: MIC): 4 µM (≈ 2.28 µg/mL)
MBC ([5]; VRSA 12, read-out: MBC): 32 µM (≈ 18.3 µg/mL)
MIC ([5]; VRSA 12, read-out: MIC): 4 µM (≈ 2.28 µg/mL)
MBC ([5]; VRSA 13, read-out: MBC): 32 µM (≈ 18.3 µg/mL)
MIC ([5]; VRSA 13, read-out: MIC): 8 µM (≈ 4.56 µg/mL)
MBC ([6]; E. faecalis ERV103 HM-934): 16 µM (≈ 9.13 µg/mL)
MIC ([6]; E. faecalis ERV103 HM-934): 8 µM (≈ 4.56 µg/mL)
MBC [6, 10]: 16 µM (≈ 9.13 µg/mL)
MIC [6, 10]: 8 µM (≈ 4.56 µg/mL)
MBC ([6]; E. faecalis R712 HM-335): 8 µM (≈ 4.56 µg/mL)
MIC ([6]; E. faecalis R712 HM-335): 4 µM (≈ 2.28 µg/mL)
MBC ([6]; E. faecalis S613 HM-334): 16 µM (≈ 9.13 µg/mL)
MIC ([6]; E. faecalis S613 HM-334): 8 µM (≈ 4.56 µg/mL)
MBC ([6]; E. faecalis TX0104 HM-201): 8 µM (≈ 4.56 µg/mL)
MIC ([6]; E. faecalis TX0104 HM-201): 8 µM (≈ 4.56 µg/mL)
MBC (B. cereus; B. cereus BAG1O-2 NR-28582): 4 µM (≈ 2.28 µg/mL)
MIC (B. cereus; B. cereus BAG1O-2 NR-28582): 4 µM (≈ 2.28 µg/mL)
MBC (B. cereus; B. cereus BAG1X1-1 NR-28575): 4 µM (≈ 2.28 µg/mL)
MIC (B. cereus; B. cereus BAG1X1-1 NR-28575): 4 µM (≈ 2.28 µg/mL)
MBC (B. cereus; B. cereus BAG1X2-1 NR-28578): 4 µM (≈ 2.28 µg/mL)
MIC (B. cereus; B. cereus BAG1X2-1 NR-28578): 4 µM (≈ 2.28 µg/mL)
MBC (B. cereus; B. cereus G9241 NR-9564): 4 µM (≈ 2.28 µg/mL)
MIC (B. cereus; B. cereus G9241 NR-9564): 4 µM (≈ 2.28 µg/mL)
MBC (B. cereus; B. cereus VD014 NR-22141): 4 µM (≈ 2.28 µg/mL)
MIC (B. cereus; B. cereus VD014 NR-22141): 4 µM (≈ 2.28 µg/mL)
MBC (B. cereus; B. cereus VD115 NR-22148): 4 µM (≈ 2.28 µg/mL)
MIC (B. cereus; B. cereus VD115 NR-22148): 4 µM (≈ 2.28 µg/mL)
MBC (B. cereus; B. cereus VD148 NR-22150): 4 µM (≈ 2.28 µg/mL)
MIC (B. cereus; B. cereus VD148 NR-22150): 4 µM (≈ 2.28 µg/mL)
MBC (B. cereus; [11]): 4 µM (≈ 2.28 µg/mL)
MIC (B. cereus; [11]): 4 µM (≈ 2.28 µg/mL)
MIC (Escherichia coli Δ acrAB; E.coli 1411): > 64 µM
MIC (Escherichia coli Δ acrAB; E.coli 1411 SM (Δ acrAB, AcrAB efflux pump deficient)): > 64 µM
MIC (Klebsiella pneumoniae; Klebsiella pneumoniae ATCC BAA 2146, colistin (+) […]): >64 µM
MIC (Klebsiella pneumoniae; Klebsiella pneumoniae, BAA2146): > 128 µM

Reference: paper PMC5053523, “In Vitro Antibacterial Activity of Rhodanine Derivatives against Pathogenic Clinical Isolates” (PLoS ONE, 2016)
